{
  "source": "patent EP2545940A9",
  "about": "“Parenteral compositions” (hameln rds gmbh, priority 2011, dated 2013)",
  "origin": "cited, not measured here",
  "details": "25°C",
  "note": "Like-named read-outs stand apart in the source and are kept apart here.",
  "data": [
    {"smiles": "C[C@H](/C=C/[C@H](C)C(C)(C)O)[C@H]1CC[C@H]2/C(=C/C=C3C[C@@H](O)C[C@H](O)C3)CCC[C@]12C", "note": "[Paracalcin, (1 R, 3R, 7E, 17β) -17 - [(1 R, 2E, 4S)-5-Hydroxy-1 ,4,5-trimethylhex-2-en-1-yl] -9,10-secoestra-5,7-Dien-1 ,3-diol]", "values": [
      {"measurement": "Paracalcin", "setting": "cosolvent: Ethanol 0.00, Propylene glycol 0.302, Water 0.698", "result": 0.58, "unit": "µg/mL"},
      {"measurement": "Paracalcin", "setting": "cosolvent: Ethanol 0.00, Propylene glycol 0.506, Water 0.494", "result": 14.21, "unit": "µg/mL"},
      {"measurement": "Paracalcin", "setting": "cosolvent: Ethanol 0.100, Propylene glycol 0.257, Water 0.643", "result": 2.88, "unit": "µg/mL"},
      {"measurement": "Paracalcin", "setting": "cosolvent: Ethanol 0.199, Propylene glycol 0.207, Water 0.594", "result": 15.94, "unit": "µg/mL"},
      {"measurement": "Paracalcin", "setting": "cosolvent: Ethanol 0.201, Propylene glycol 0.308, Water 0.491", "result": 72.90, "unit": "µg/mL"},
      {"measurement": "Paracalcin", "setting": "cosolvent: Ethanol 0.299, Propylene glycol 0.00, Water 0.701", "result": 6.82, "unit": "µg/mL"},
      {"measurement": "Paracalcin", "setting": "cosolvent: Ethanol 0.347, Propylene glycol 0.102, Water 0.551", "result": 119.37, "unit": "µg/mL"},
      {"measurement": "Paracalcin", "setting": "cosolvent: Ethanol 0.498, Propylene glycol 0.00, Water 0.502", "result": 601.63, "unit": "µg/mL"}
    ]}
  ]
}
